Values of other authors as cited in patent publication US6124256A, “Method for the prevention of a patient's fibroproliferative vasculopathy” (priority 1998, dated 2000).

Tests used:
hSSTR1 = target: T1, hSSTR1 (Homo sapiens, UniProt P30872); conditions: human receptor in transfected CHO cell lines; read-out: binding affinities Ki hSSTR1
T1 construct: expressed in transfected cells; host or cells: CHO

dysplastic lesions = conditions: arterial, venous and vascular transplant models, various animal species; results inconsistent between models
restenosis = conditions: randomized placebo controlled clinical trials; quantitated by angiography or as clinical events
SSTR2 [1] = target: T2, SSTR2 (Homo sapiens, UniProt P30874)
Target sequence in this assay (P30874 whole entry, species assumed): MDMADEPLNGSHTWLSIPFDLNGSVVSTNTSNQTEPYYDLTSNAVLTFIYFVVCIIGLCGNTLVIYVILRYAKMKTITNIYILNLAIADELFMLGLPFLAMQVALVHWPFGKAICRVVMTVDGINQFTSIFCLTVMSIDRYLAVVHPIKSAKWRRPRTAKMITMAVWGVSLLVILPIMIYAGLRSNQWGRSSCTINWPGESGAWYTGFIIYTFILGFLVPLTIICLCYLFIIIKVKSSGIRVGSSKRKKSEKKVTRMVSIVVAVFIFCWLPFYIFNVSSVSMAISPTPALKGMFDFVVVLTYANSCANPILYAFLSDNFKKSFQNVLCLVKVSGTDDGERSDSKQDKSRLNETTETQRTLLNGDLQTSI

hSSTR3 [2] = target: T3, hSSTR3 (Homo sapiens, UniProt P32745)
[3] = system: SSTR3, the rodent receptor
hSSTR4 = target: T4, hSSTR4 (Homo sapiens, UniProt P31391); conditions: human receptor in transfected CHO cell lines; read-out: binding affinities Ki hSSTR4
T4 construct: expressed in transfected cells; host or cells: CHO

hSTR5 = target: T5, hSTR5 (Homo sapiens, UniProt P35346); conditions: human receptor in transfected CHO cell lines; read-out: binding affinities Ki hSTR5
T5 construct: expressed in transfected cells; host or cells: CHO

SSTR2 [4] = target: T2, SSTR2; design: expressed in transfected cells; host or cells: CHO; conditions: human receptor in transfected CHO cell lines; read-out: binding affinities Ki hSSTR2
Target sequence in this assay (P30874 whole entry): as the sequence (P30874 whole entry, species assumed) above

hSSTR3 [5] = target: T3, hSSTR3; design: expressed in transfected cells; host or cells: CHO; conditions: human receptor in transfected CHO cell lines; read-out: binding affinities Ki hSSTR3

T1 sequence (P30872 whole entry): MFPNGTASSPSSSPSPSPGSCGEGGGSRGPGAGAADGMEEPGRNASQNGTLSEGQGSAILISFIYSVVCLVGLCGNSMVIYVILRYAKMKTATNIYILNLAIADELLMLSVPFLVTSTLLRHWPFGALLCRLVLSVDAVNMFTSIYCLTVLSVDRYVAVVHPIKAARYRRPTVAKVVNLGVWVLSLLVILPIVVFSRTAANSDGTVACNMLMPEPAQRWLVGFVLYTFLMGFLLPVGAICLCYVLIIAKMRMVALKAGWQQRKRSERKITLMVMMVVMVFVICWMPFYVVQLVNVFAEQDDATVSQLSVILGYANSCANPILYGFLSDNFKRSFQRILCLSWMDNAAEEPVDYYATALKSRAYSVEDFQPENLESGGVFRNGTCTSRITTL
T3 sequence (P32745 whole entry): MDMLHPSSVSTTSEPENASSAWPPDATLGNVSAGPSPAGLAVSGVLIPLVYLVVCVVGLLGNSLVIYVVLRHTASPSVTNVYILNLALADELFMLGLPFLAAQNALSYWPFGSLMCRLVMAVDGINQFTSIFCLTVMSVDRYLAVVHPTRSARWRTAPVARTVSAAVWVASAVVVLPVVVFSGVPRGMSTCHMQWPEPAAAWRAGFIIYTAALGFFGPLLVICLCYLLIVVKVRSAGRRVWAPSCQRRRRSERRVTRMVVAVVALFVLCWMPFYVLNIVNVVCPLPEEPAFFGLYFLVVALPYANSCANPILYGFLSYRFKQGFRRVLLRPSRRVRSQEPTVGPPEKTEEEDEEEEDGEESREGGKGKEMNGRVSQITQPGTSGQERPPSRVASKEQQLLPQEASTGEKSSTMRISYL
T4 sequence (P31391 whole entry): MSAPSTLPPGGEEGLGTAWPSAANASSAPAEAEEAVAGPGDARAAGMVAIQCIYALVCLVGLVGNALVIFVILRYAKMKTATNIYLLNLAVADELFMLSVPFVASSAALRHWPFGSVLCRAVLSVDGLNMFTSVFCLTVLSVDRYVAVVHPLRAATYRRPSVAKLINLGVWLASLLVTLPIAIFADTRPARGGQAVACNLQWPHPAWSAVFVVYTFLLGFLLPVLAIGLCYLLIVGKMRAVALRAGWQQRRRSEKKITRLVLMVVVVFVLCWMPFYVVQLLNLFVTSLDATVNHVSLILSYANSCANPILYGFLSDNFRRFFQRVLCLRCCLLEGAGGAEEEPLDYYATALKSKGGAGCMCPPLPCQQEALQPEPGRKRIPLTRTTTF
T5 sequence (P35346 whole entry): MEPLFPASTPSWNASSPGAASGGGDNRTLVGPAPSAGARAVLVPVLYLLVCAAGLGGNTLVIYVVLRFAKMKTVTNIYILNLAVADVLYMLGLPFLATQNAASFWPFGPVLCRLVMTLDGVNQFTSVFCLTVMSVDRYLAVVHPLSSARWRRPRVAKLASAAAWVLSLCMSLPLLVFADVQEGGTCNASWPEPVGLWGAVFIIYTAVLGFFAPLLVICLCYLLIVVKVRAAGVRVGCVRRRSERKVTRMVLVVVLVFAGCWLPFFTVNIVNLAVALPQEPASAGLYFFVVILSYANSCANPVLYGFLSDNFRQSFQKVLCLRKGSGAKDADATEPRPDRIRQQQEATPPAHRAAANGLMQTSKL

Compound	Ki (hSSTR1) [nM]	formation of dysplastic lesions (dysplastic lesions)	prevention of restenosis after percutaneous transluminal angioplasty (restenosis)	affinity to SSTR2 (in words) (SSTR2 [1])	binding to human SSTR3 (in words) (hSSTR3 [2])	affinity for the rodent SSTR3 receptor (in words) [3]	Ki (hSSTR4) [nM]	Ki (hSTR5) [nM]	Ki (SSTR2 [4]) [nM]	Ki (hSSTR3 [5]) [nM]
CC(C)[C@@H]1NC(=O)[C@H](CCCCN)NC(=O)[C@@H](Cc2c[nH]c3ccccc23)NC(=O)[C@H](Cc2ccc(O)cc2)NC(=O)[C@@H](NC(=O)[C@H](N)Cc2ccc3ccccc3c2)CSSC[C@@H](C(=O)N[C@H](C(N)=O)[C@@H](C)O)NC1=O [Lanreotide, lanreotide]	> 1000	prevents the formation of dysplastic lesions	in some studies has been shown to prevent restenosis	high affinity						
C[C@@H](O)[C@@H]1NC(=O)[C@H](CCCCN)NC(=O)[C@@H](Cc2c[nH]c3ccccc23)NC(=O)[C@H](Cc2ccccc2)NC(=O)[C@@H](NC(=O)[C@H](N)Cc2ccccc2)CSSC[C@@H](C(=O)N[C@H](CO)[C@@H](C)O)NC1=O [Octeoride, octreotide]		prevents the formation of dysplastic lesions	the same therapeutic response has not been achieved	high affinity	binds well	only moderate affinity				
desAA^1.2.5 [D-Trp^6 -N-p-isopropyl-4-aminomethyl-L-phenylalanine]-SST14 [DADI-SST14]	3.2						4.3	> 1000	> 1000	> 1000
